Molecules are shown by their SMILES. Structures can show the parent of a compound that is named as a salt.

This assay concerns the target human GPR40 (Homo sapiens, UniProt O14842). As to the kind of experiment: FDSS-based intracellular calcium assay (Human GRP40 in vitro assay). In kind it is cell-based. Also noted: 3xFLAG; expressed in transfected cells. The conditions noted are these: cells expressing GPR40, intracellular Ca2+ response, FDSS reader; read-out: hGPR40 EC50. The protocol:
To conduct the fluorescent imaging plate reader (FLIPR)-based calcium flux assay to measure intracellular Ca^2+ response, cells expressing GPR40 are plated on 384 well plates (BD BIOCOAT® #356697) at a density of 20,000 cells/20 μL medium per well in phenol red and serum-free DMEM (GIBCO® #21063-029) and incubated overnight. Using BD kit #s 80500-310 or -301, the cells are incubated with 20 μL per well of Hank's buffered salt solution with 1.7 mM probenecid and Fluo-3 at 37° C. for 30 min. Compounds are dissolved in DMSO and diluted to desired concentrations with assay buffer and added to the cells as 3× solution (20 μL per well). Run fluorescence/luminescence reader FDSS (Hamamatsu) to read intracellular Ca^2+ response.

Sequence of human GPR40 (O14842 whole entry): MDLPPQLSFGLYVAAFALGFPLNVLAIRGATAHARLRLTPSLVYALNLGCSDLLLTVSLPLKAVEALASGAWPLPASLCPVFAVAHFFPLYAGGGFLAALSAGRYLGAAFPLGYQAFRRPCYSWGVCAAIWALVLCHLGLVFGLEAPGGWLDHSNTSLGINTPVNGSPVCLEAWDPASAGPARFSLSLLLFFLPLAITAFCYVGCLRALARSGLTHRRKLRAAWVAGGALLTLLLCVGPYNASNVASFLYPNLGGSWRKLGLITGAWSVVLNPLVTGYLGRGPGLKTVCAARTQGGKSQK

For orientation: EC50 means the concentration needed to bring the measured effect to its halfway point. For `COc1ccc(F)c(N2CCC(Oc3ccc(N4C[C@H](C(F)(F)F)C[C@@H]4CC(=O)O)cc3)C2)c1` (single isomer, unassigned) [Example 12, Isomer 1, HCl], the EC50 is 2800 nM.
For `COc1ccc(F)c(N2CCC(Oc3ccc(N4C[C@H](C(F)(F)F)C[C@@H]4CC(=O)O)cc3)C2)c1` (single isomer, unassigned) [Example 12, Isomer 2, HCl], the EC50 was 5400 nM.
To `COc1ccc(F)c(N2CCC(Oc3ccc(N4C[C@H](OC)C[C@@H]4CC(=O)O)cc3)CC2C)c1` (single isomer, unassigned) [Example 13, Isomer 1, HCl] belongs 710 nM.
The same measure for `COc1ccc(F)c(N2CCC(Oc3ccc(N4C[C@H](OC)C[C@@H]4CC(=O)O)cc3)CC2C)c1` (single isomer, unassigned) [Example 13, Isomer 2, HCl]: 160 nM; for `COc1ccc(F)c(N2CCC(Oc3ccc(N4C[C@H](OC)C[C@@H]4CC(=O)O)cc3)C(C)C2)c1` (single isomer, unassigned) [Example 17, Isomer 1]: 340 nM.
The same measure for `COc1ccc(F)c(N2CCC(Oc3ccc(N4C[C@H](OC)C[C@@H]4CC(=O)O)cc3)C(C)C2)c1` (single isomer, unassigned) [Example 17, Isomer 2]: 64 nM.
For `COc1ccc(F)c(N2CCC(Oc3ccc(N4CC(C(F)(F)F)C(C)C4CC(=O)O)cc3)CC2)c1` (single isomer, unassigned) [Example 26, Isomer 2, 2-((2,3-trans,3,4-trans)-1-(4-((1-(2-Fluoro-5-methoxyphenyl)piperidin-4-yl)oxy)phenyl)-3-methyl-4-(trifluoromethyl)pyrrolidin-2-yl)acetic acid, HCl], the EC50 was determined as 8400 nM.
The same measure for `COc1cc(N2CCC(Oc3ccc(N4C[C@H](C(F)(F)F)C[C@@H]4CC(=O)O)cc3)C(C)C2)c(Cl)cn1` (single isomer, unassigned) [Example 27, Isomer 1, HCl]: 440 nM.
The same measure for `COc1cc(N2CCC(Oc3ccc(N4C[C@H](C(F)(F)F)C[C@@H]4CC(=O)O)cc3)C(C)C2)c(Cl)cn1` (single isomer, unassigned) [Example 27, Isomer 2, HCl]: 130 nM.
For `COc1cc(N2CCC(Oc3ccc(N4C[C@H](C(F)(F)F)C[C@@H]4CC(=O)O)cc3)C(F)C2)c(Cl)cn1` (single isomer, unassigned) [Example 28, Isomer 1, HCl], the EC50 stood at 330 nM.
Regarding `COc1cc(N2CCC(Oc3ccc(N4C[C@H](C(F)(F)F)C[C@@H]4CC(=O)O)cc3)C(F)C2)c(Cl)cn1` (single isomer, unassigned) [Example 28, Isomer 2, HCl], the EC50 stood at 210 nM.
The same measure for `CCOc1ccc(F)c(N2CCC(Oc3ccc(N4C[C@H](C(F)(F)F)C[C@@H]4CC(=O)O)cc3)C(CC)C2)c1` (single isomer, unassigned) [Example 33, Isomer 1, HCl]: 1900 nM; for `CCOc1ccc(F)c(N2CCC(Oc3ccc(N4C[C@H](C(F)(F)F)C[C@@H]4CC(=O)O)cc3)C(CC)C2)c1` (single isomer, unassigned) [Example 33, Isomer 2, HCl]: 430 nM; for `CCOc1ccc(F)c(N2CCC(Oc3ccc(N4C[C@H](C(F)(F)F)C[C@@H]4CC(=O)O)cc3)C(CC(C)C)C2)c1` (single isomer, unassigned) [Example 35, Isomer 1, HCl]: 1800 nM.
The same measure for `CCOc1ccc(F)c(N2CCC(Oc3ccc(N4C[C@H](C(F)(F)F)C[C@@H]4CC(=O)O)cc3)C(Cc3ccccc3)C2)c1` (single isomer, unassigned) [Example 36, Isomer 1, HCl]: 6000 nM; for `CCOc1ccc(F)c(N2CCC(Oc3ccc(N4C[C@H](C(F)(F)F)C[C@@H]4CC(=O)O)cc3)C(Cc3ccccc3)C2)c1` (single isomer, unassigned) [Example 36, Isomer 2, HCl]: 740 nM.
The same measure for `CCOc1ccc(F)c(N2CCC(Oc3ccc(N4C[C@H](C(F)(F)F)C[C@@H]4CC(=O)O)cc3)C(C)C2C)c1` (single isomer, unassigned) [Example 44, Isomer 1, HCl]: 500 nM.
Turning to `CCOc1ccc(F)c(N2CCC(Oc3ccc(N4C[C@H](C(F)(F)F)C[C@@H]4CC(=O)O)cc3)C(C)C2C)c1` (single isomer, unassigned) [Example 44, Isomer 2, HCl], the EC50 was found to be 505 nM.
Regarding `COc1ccc(F)c(N2CCC(Oc3ccc(N4CCCC4CC(=O)O)cc3)CC2)c1` (single isomer, unassigned) [Example 48, Isomer 1, 2-(1-(4-((1-(2-Fluoro-5-methoxyphenyl)piperidin-4-yl)oxy)phenyl)pyrrolidin-2-yl)acetic acid], the EC50 is 4100 nM.
Consider `COc1ccc(F)c(N2CCC(Oc3ccc(N4CC(F)(F)C[C@@H]4CC(=O)O)cc3)C(C)C2)c1` (single isomer, unassigned) [Example 53, Isomer 1, HCl], for which the EC50 was 410 nM.
To `COc1ccc(C)c(N2CCC(Oc3ccc(N4C[C@H](OC)C[C@@H]4CC(=O)O)cc3)C(C)C2)c1` (single isomer, unassigned) [Example 64, Isomer 1] belongs 240 nM.
To `COc1ccc(C)c(N2CCC(Oc3ccc(N4C[C@H](OC)C[C@@H]4CC(=O)O)cc3)C(C)C2)c1` (single isomer, unassigned) [Example 64, Isomer 2] belongs 120 nM.
To `COc1ccc(C2CCCC2(C)C)c(N2CCC(Oc3ccc(N4C[C@H](OC)C[C@@H]4CC(=O)O)cc3)CC2)c1` (single isomer, unassigned) [Example 65, Isomer 2] belongs 120 nM; to `COc1cc(N2CCC(Oc3ccc(N4C[C@H](OC)C[C@@H]4CC(=O)O)cc3)C(C)C2)c(F)cn1` (single isomer, unassigned) [Example 83, Isomer 1], 4800 nM; to `COc1cc(N2CCC(Oc3ccc(N4C[C@H](OC)C[C@@H]4CC(=O)O)cc3)C(C)C2)c(F)cn1` (single isomer, unassigned) [Example 83, Isomer 2], 370 nM.
For `COc1cc(N2CCC(Oc3ccc(N4C[C@H](OC)C[C@@H]4CC(=O)O)cc3)C(C)C2)c(Cl)cn1` (single isomer, unassigned) [Example 84, Isomer 1, TFA], the EC50 stood at 730 nM.
The same measure for `COc1cc(N2CCC(Oc3ccc(N4C[C@H](OC)C[C@@H]4CC(=O)O)cc3)C(C)C2)c(Cl)cn1` (single isomer, unassigned) [Example 84, Isomer 2, TFA]: 180 nM; for `COc1cc(N2CCC(Oc3ccc(N4C[C@H](OC)CC4CC(=O)O)c(F)c3F)C(C)C2)c(Cl)cn1` (single isomer, unassigned) [Example 141, Isomer 1]: 410 nM.
In the case of `COc1cc(N2CCC(Oc3ccc(N4C[C@H](OC)CC4CC(=O)O)c(F)c3F)C(C)C2)c(Cl)cn1` (single isomer, unassigned) [Example 141, Isomer 2], the EC50 came out at 5600 nM.
The same measure for `COc1cc(N2CCC(Oc3ccc(N4C[C@H](OC)CC4CC(=O)O)c(F)c3F)C(C)C2)c(Cl)cn1` (single isomer, unassigned) [Example 141, Isomer 3]: 4700 nM.
To `COc1cc(N2CCC(Oc3ccc(N4C[C@H](OC)[C@@H](F)[C@@H]4CC(=O)O)cc3)C(C)C2)c(Cl)cn1` (single isomer, unassigned) [Example 147, Isomer 1, HCl] belongs 170 nM.
The same measure for `COc1cc(N2CCC(Oc3ccc(N4C[C@H](OC)[C@@H](C)[C@@H]4CC(=O)O)cn3)C(C)C2)c(C2CCCC2(C)C)cn1` (single isomer, unassigned) [Example 150, Isomer 1, HCl]: 320 nM; for `COc1cc(N2CCC(Oc3ccc(N4C[C@H](OC)[C@@H](C)[C@@H]4CC(=O)O)cn3)C(C)C2)c(C2CCCC2(C)C)cn1` (single isomer, unassigned) [Example 150, Isomer 2, HCl]: 110 nM.
Consider `COc1cc(N2CCC(Oc3ccc(N4C[C@H](OC)[C@@H](C)[C@@H]4CC(=O)O)cn3)CC2)c(C2CCCC2(C)C)cn1` (single isomer, unassigned) [Example 151, Isomer 2, HCl], for which the EC50 worked out at 140 nM.
To `COc1cc(N2CCC(Oc3ccc(N4C[C@H](OC)[C@@H](C)[C@@H]4CC(=O)O)cc3)C(C)C2)c(F)cc1F` (single isomer, unassigned) [Example 169, Isomer 1] belongs 3500 nM; to `COc1cc(N2CCC(Oc3ccc(N4C[C@H](OC)[C@@H](C)[C@@H]4CC(=O)O)cc3)C(C)C2)c(F)cc1F` (single isomer, unassigned) [Example 169, Isomer 2], 450 nM; to `COCC1CN(c2cc(OC)ncc2Cl)CCC1Oc1ccc(N2C[C@H](C(F)(F)F)C[C@@H]2CC(=O)O)cc1` (single isomer, unassigned) [Example 172, Isomer 1, TFA], 1800 nM.
To `COCC1CN(c2cc(OC)ncc2Cl)CCC1Oc1ccc(N2C[C@H](C(F)(F)F)C[C@@H]2CC(=O)O)cc1` (single isomer, unassigned) [Example 172, Isomer 2, TFA] belongs 460 nM; to `CCO[C@@H]1C[C@H](CC(=O)O)N(c2ccc(OC3CCN(c4cc(OC)ccc4F)CC3)cc2)C1` [Example 2, 2-((2R,4R)-4-Ethoxy-1-(4-((1-(2-fluoro-5-methoxyphenyl)piperidin-4-yl)oxy)phenyl)pyrrolidin-2-yl)acetic acid, HCl], 120 nM; to `COc1ccc(F)c(N2CCC(Oc3ccc(N4C[C@H](c5ccccc5)C[C@@H]4CC(=O)O)cc3)CC2)c1` [Example 3, 2-((2R,4S)-1-(4-((1-(2-Fluoro-5-methoxyphenyl)piperidin-4-yl)oxy)phenyl)-4-phenylpyrrolidin-2-yl)acetic acid, HCl], 210 nM.

Source of the values: patent US9714231B2, “Pyrrolidine GPR40 modulators” (BRISTOL-MYERS SQUIBB COMPANY, priority 2012, dated 2017).
